Reference: ChEMBL document CHEMBL1157533 (J Med Chem, 2008)
pEC50: −log10 of the molar value.

Key:
[1] = target: Beta-1 adrenergic receptor (Homo sapiens, UniProt P08588); assay: Agonist activity at human recombinant beta-1 adrenergic receptor expressed in CHO cells assessed as cAMP accumulation by enzyme immuno assay; assay type: functional, cell-based
[2] = target: Beta-3 adrenergic receptor (Homo sapiens, UniProt P13945); assay: Agonist activity at human recombinant beta3 adrenergic receptor expressed in CHO cells assessed as cAMP accumulation by enzyme immuno assay; assay type: functional, cell-based
[3] = target: Beta-2 adrenergic receptor (Homo sapiens, UniProt P07550); assay: Agonist activity at human recombinant beta2 adrenergic receptor expressed in CHO cells assessed as cAMP accumulation by enzyme immuno assay; assay type: functional, cell-based
[4] = Cmax in monkey at 0.32 mg/kg, po by cassette assay; assay type: ADME, organism-based, Macaca mulatta; parameters: dose 0.32 mg/kg, route oral; conditions: rhesus monkey, in vivo
[5] = AUC (0 to 24 hrs) in monkey at 0.32 mg/kg, po by cassette assay; assay type: ADME, organism-based, Macaca mulatta; parameters: time < 24 hr, dose 0.32 mg/kg, route oral; conditions: rhesus monkey, plasma
[6] = Bioavailability in monkey at 0.32 mg/kg, po by cassette assay; assay type: ADME, organism-based, Macaca mulatta; conditions: rhesus monkey, in vivo
[7] = Terminal half life in monkey plasma at 0.32 mg/kg, iv by cassette assay; assay type: ADME, organism-based, Macaca mulatta; parameters: dose 0.32 mg/kg, route intravenous; conditions: rhesus monkey, read-out: beta t1/2 (converted)
[8] = Total clearance in monkey at 0.32 mg/kg, iv by cassette assay; assay type: ADME, organism-based, Macaca mulatta; parameters: dose 0.32 mg/kg, route intravenous; conditions: rhesus monkey, in vivo
[9] = Cmax in dog at 0.1 mg/kg, po; assay type: ADME, organism-based, Canis lupus familiaris; parameters: dose 0.1 mg/kg, route oral; conditions: in vivo
[10] = Bioavailability in dog at 0.1 mg/kg, po; assay type: ADME, organism-based, Canis lupus familiaris; conditions: in vivo
[11] = Terminal half life in dog at 0.1 mg/kg, iv; assay type: ADME, organism-based, Canis lupus familiaris; parameters: dose 0.1 mg/kg, route intravenous; conditions: in vivo, read-out: beta t1/2 (converted)
[12] = Total clearance in dog at 0.1 mg/kg, iv; assay type: ADME, organism-based, Canis lupus familiaris; parameters: dose 0.1 mg/kg, route intravenous; conditions: in vivo
[13] = Cmax in rat at 0.34 mg/kg, po by cassette assay; assay type: ADME, organism-based; parameters: dose 0.34 mg/kg, route oral; conditions: in vivo
[14] = AUC (0 to 24 hrs) in rat at 0.34 mg/kg, po by cassette assay; assay type: ADME, organism-based; parameters: time < 24 hr, dose 0.34 mg/kg, route oral; conditions: plasma
[15] = system: Rattus norvegicus; assay: Terminal half life in rat at 0.34 mg/kg, iv by cassette assay; assay type: ADME, organism-based; parameters: dose 0.34 mg/kg, route intravenous; conditions: in vivo
[16] = Total clearance in rat at 0.34 mg/kg, iv by cassette assay; assay type: ADME, organism-based; parameters: dose 0.34 mg/kg, route intravenous; conditions: in vivo
[17] = system: Rattus norvegicus; assay: Bioavailability in rat at 0.34 mg/kg, po by cassette assay; assay type: ADME, organism-based; conditions: in vivo
[18] = target: Beta-3 adrenergic receptor (Canis lupus familiaris, UniProt O02662); assay: Agonist activity at dog recombinant beta3 adrenergic receptor expressed in CHO cells assessed as cAMP accumulation by enzyme immuno assay; assay type: functional, cell-based
[19] = Protein binding in Beagle dog serum; assay type: ADME, cell-free, Canis lupus familiaris; conditions: read-out: PPB (converted)
[20] = AUC (0 to 24 hrs) in dog at 0.1 mg/kg, po; assay type: ADME, organism-based, Canis lupus familiaris; parameters: time < 24 hr, dose 0.1 mg/kg, route oral; conditions: plasma
[21] = organism: Canis familiaris; assay: cells; conditions: Canis lupus familiaris, 3 h
Description: Inhibition of carbachol-induced increase in intravesical pressure in intraduodenally dosed Beagle dog OAB model for 180 mins

[22] = Bioavailability in rat at 1.0 mg/kg, po; assay type: ADME, organism-based; conditions: in vivo
[23] = Cmax in rat at 1.0 mg/kg, po; assay type: ADME, organism-based; parameters: dose 1 mg/kg, route oral; conditions: in vivo
[24] = Cmax in dog at 0.32 mg/kg, po; assay type: ADME, organism-based, Canis lupus familiaris; parameters: dose 0.32 mg/kg, route oral; conditions: in vivo
[25] = Cmax in monkey at 0.27 mg/kg, po by cassette assay; assay type: ADME, organism-based, Macaca mulatta; parameters: dose 0.27 mg/kg, route oral; conditions: rhesus monkey, in vivo
[26] = AUC (0 to 24 hrs) in rat at 1.0 mg/kg, po; assay type: ADME, organism-based; parameters: time < 24 hr, dose 1 mg/kg, route oral; conditions: plasma
[27] = AUC (0 to 24 hrs) in dog at 0.32 mg/kg, po; assay type: ADME, organism-based, Canis lupus familiaris; parameters: time < 24 hr, dose 0.32 mg/kg, route oral; conditions: plasma
[28] = AUC (0 to 24 hrs) in monkey at 0.27 mg/kg, po by cassette assay; assay type: ADME, organism-based, Macaca mulatta; parameters: time < 24 hr, dose 0.27 mg/kg, route oral; conditions: rhesus monkey, plasma
[29] = Bioavailability in dog at 0.32 mg/kg, po; assay type: ADME, organism-based, Canis lupus familiaris; conditions: in vivo
[30] = Bioavailability in monkey at 0.27 mg/kg, po by cassette assay; assay type: ADME, organism-based, Macaca mulatta; conditions: rhesus monkey, in vivo
[31] = Terminal half life in rat plasma at 1.0 mg/kg, iv; assay type: ADME, organism-based; parameters: dose 1 mg/kg, route intravenous; conditions: read-out: beta t1/2 (converted)
[32] = Terminal half life in dog plasma at 0.32 mg/kg, iv; assay type: ADME, organism-based, Canis lupus familiaris; parameters: dose 0.32 mg/kg, route intravenous; conditions: read-out: beta t1/2 (converted)
[33] = Terminal half life in monkey plasma at 0.27 mg/kg, iv by cassette assay; assay type: ADME, organism-based, Macaca mulatta; parameters: dose 0.27 mg/kg, route intravenous; conditions: rhesus monkey, read-out: beta t1/2 (converted)
[34] = Total clearance in rat at 1.0 mg/kg, iv; assay type: ADME, organism-based; parameters: dose 1 mg/kg, route intravenous; conditions: in vivo
[35] = Total clearance in dog at 0.32 mg/kg, iv; assay type: ADME, organism-based, Canis lupus familiaris; parameters: dose 0.32 mg/kg, route intravenous; conditions: in vivo
[36] = Total clearance in monkey at 0.27 mg/kg, iv by cassette assay; assay type: ADME, organism-based, Macaca mulatta; parameters: dose 0.27 mg/kg, route intravenous; conditions: rhesus monkey, in vivo

Sequence of Beta-2 adrenergic receptor (P07550 whole entry): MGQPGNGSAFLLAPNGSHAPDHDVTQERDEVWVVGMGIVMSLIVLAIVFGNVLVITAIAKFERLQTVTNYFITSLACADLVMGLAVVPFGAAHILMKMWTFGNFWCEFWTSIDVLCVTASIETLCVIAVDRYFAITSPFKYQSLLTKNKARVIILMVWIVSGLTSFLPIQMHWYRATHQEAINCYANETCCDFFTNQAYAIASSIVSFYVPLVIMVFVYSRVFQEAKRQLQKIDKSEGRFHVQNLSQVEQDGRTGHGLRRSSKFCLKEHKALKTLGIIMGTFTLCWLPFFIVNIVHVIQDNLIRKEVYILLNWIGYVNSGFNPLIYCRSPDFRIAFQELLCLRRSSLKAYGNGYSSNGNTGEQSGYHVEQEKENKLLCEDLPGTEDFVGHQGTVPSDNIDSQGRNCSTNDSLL
Sequence of Beta-3 adrenergic receptor (Homo sapiens, UniProt P13945) (P13945 whole entry): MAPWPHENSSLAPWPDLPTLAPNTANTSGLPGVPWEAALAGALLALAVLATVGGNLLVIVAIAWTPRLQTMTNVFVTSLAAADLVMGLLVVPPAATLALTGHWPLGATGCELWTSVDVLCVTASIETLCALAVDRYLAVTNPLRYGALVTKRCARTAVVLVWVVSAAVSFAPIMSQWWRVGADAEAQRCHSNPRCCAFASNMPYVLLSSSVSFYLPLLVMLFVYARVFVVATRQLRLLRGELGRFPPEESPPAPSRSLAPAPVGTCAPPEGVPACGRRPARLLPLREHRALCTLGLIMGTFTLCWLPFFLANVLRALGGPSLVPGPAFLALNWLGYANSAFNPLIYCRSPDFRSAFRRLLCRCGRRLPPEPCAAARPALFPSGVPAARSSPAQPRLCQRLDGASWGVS
Sequence of Beta-3 adrenergic receptor (Canis lupus familiaris, UniProt O02662) (O02662 whole entry): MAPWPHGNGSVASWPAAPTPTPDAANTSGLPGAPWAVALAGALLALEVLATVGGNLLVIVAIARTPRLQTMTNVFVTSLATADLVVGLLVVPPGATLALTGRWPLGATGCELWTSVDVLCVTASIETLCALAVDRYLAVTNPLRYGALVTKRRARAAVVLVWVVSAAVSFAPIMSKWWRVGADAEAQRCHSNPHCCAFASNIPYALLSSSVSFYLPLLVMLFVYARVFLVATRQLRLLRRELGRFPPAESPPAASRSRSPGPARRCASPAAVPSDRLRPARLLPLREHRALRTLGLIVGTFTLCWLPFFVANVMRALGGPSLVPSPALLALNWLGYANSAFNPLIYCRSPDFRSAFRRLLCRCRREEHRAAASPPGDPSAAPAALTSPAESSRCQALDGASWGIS
Sequence of Beta-1 adrenergic receptor (P08588 whole entry): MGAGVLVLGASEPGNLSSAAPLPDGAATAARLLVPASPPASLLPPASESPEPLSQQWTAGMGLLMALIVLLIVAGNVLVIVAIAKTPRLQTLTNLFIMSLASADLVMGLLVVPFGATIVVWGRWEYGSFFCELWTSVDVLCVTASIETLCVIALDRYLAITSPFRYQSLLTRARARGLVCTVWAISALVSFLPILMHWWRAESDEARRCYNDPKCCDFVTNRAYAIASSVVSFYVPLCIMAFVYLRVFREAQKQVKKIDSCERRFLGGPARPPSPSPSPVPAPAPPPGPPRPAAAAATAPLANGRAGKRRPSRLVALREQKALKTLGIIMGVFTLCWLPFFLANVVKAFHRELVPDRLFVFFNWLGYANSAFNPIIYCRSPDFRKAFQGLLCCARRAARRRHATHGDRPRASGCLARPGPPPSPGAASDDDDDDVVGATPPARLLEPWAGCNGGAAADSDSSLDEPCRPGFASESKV

For `CC(C)Oc1cc(-c2ccc(CCN[C@@H](C)[C@H](O)c3ccccc3)cc2)ccc1C(=O)O`, the pEC50 [1] was 6.11, the pEC50 [2] was 9.09 and the pEC50 [3] was < 5.00. For the same compound, the Cmax [4] was 178 ng/mL, the AUC(0-t) at 24 h [5] was 1800 ng·h/mL and the bioavailability [6] was 88.2%. It also gave a half-life [7] of 29 h, a clearance [8] of 2.5 mL/min/kg and a Cmax [9] of 7.4 ng/mL. The bioavailability [10] was 63.9%, the half-life [11] was 14.3 h and the clearance [12] was 7.3 mL/min/kg. For the same compound, the Cmax [13] was 125 ng/mL, the AUC(0-t) at 24 h [14] was 880 ng·h/mL and the beta t1/2 [15] was 8.2 h. For the same compound, the clearance [16] was 6.8 mL/min/kg, the bioavailability [17] was 100% and the pEC50 [18] was 8.43. The fraction unbound [19] was 0.14, the AUC(0-t) at 24 h [20] was 134 ng·h/mL and the pEC50 [21] was 8.02. The ED50 [21] was 0.02 mg/kg.

With `CC(C)Oc1cc(-c2ccc(CCNC[C@H](O)c3cccnc3)cc2)ccc1C(=O)O` the pEC50 [1] was < 6.00, the pEC50 [2] was 8.82 and the pEC50 [3] was < 5.00. The bioavailability [22] was 61.5%, the Cmax [23] was 172 ng/mL and the Cmax [24] was 27 ng/mL. For the same compound, the Cmax [25] was 11 ng/mL, the AUC(0-t) at 24 h [26] was 548 ng·h/mL and the AUC(0-t) at 24 h [27] was 461 ng·h/mL. For the same compound, the AUC(0-t) at 24 h [28] was 77.5 ng·h/mL, the bioavailability [29] was 63.2% and the bioavailability [30] was 25.7%. The half-life [31] was 3.5 h, the half-life [32] was 9.9 h and the half-life [33] was 2.2 h. For the same compound, the clearance [34] was 16 mL/min/kg, the clearance [35] was 6.4 mL/min/kg and the clearance [36] was 22.8 mL/min/kg. It also gave a pEC50 [18] of 7.96, a fraction unbound [19] of 0.23 and a pEC50 [21] of 8.11. It also gave an ED50 [21] of 0.0284 mg/kg.
